Assay results from US20130123618A1, “Imaging Agents” (priority 2008, published 2013).
Read-outs that look alike come from different tables or passages of the source.

Tests used:
[1] = test system: A549, human lung cancer cells implanted in flanks; assay: tissue distribution in SCID mice bearing A549 tumors; type: in vivo; details: for tissue distribution, blood / tissue distribution, bone / tissue distribution, brain / tissue distribution, heart / tissue distribution, kidney / tissue distribution, liver / tissue distribution, lung / tissue distribution, muscle / tissue distribution, pancreas / tissue distribution, spleen / tissue distribution, tumor: A549 tumor-bearing SCID mice, tail vein, ave, listed as Anti 2-[^18F]FACPC Enantiomer 2
Experimental: (§1) For the in vitro amino acid uptake studies, all cells can be grown to monolayer confluency in T-175 culture flasks [Corning, Corning, N.Y.] (approx. 1×10^8 cells/flask) in Dulbecco's Modified Eagle's Medium (DMEM) [Sigma, St. Louis, Mo.] in a humidified incubator (37° C., 5% CO2/95% air). Media are supplemented with 10% fetal calf serum [Hyclone, Logan, Utah], and antibiotics (10,000 U/ml penicillin and 10 mg/ml streptomycin) (Sigma, St. Louis, Mo.). For tissue culture passage, monolayer cells are detached by gentle trypsinization, resuspended in complete media, and split 1:10 into new T-flasks. Cultures are passaged weekly, and fed fresh media every 2 to 3 days. To initiate tumor growth in SCID mice, 1×10^6 cells are injected s.c. bilaterally into the flanks (inguinal region) of the recipient animals using a 1 ml syringe with a 27 gauge needle. Ex vivo experiments can be performed with animals containing tumors weighing between 500 mg and 1 g, as estimated by caliper measurement (tumor weight=(π/6)*abc, where a, b and c are the tumor length, width and height, respectively).
(§2) Tissue distribution of the compounds is measured in SCID mice (average weight, 20-25 g) bearing human tumors as follows. The candidate radioligands (20 uCi in 0.4 ml 0.9% NaCl) are injected into the tail vein of tumor-bearing mice. […] Tissues (blood, heart, liver, lungs, kidneys, bone, thyroid, muscle, brain and tumor) are excised, rinsed in saline, and blotted dry. The tissues are weighed, placed into 12×75 mm glass vials, the radioactivity determined with a gamma counter, and the percent dose/gram calculated. Total activities of blood and muscle are calculated by assuming that they account for 7% and 40% of the total body mass, respectively.
(§3) Tables 3-7 show the results of the biodistribution studies with the separate enantiomers of anti-2-[^18F]FACPC and racemic anti-2-[^18F]FACBC as a comparison in SCiD mice implanted in their flanks with A549, human lung cancer cells and DU145, human prostate cancer cells.

[2] = test system: DU145, human prostate cancer cells implanted in flanks; assay: tissue distribution in SCID mice bearing DU145 tumors; type: in vivo; details: DU145 tumors, SCID mice, time points sampled post injection
Experimental: as §1, §2, §3

[3] = test system: tumor cells; assay: overall conclusion of uptake studies in cancer cells in vitro; type: cell-based
Experimental: In the in vitro studies the uptake rate of each amino acid compound is measured in each tumor line, as well as the dominant transport mechanisms of each tumor cell line. After trypsinization, cells are resuspended in serum-free media, then counted on a hemocytometer, with viability assessed through Trypan blue staining. Approximately 1×10^7 cells are exposed to each compound (15 μCi) in 15 ml of amino acid free media for 5, 10, 15, 30 and 60 minutes at 37° C. Cells are then centrifuged at 150×g for 5 minutes, rinsed in 5 ml cold-saline, recentrifuged, resuspended in 3 ml saline, and placed into 12×75 mm glass vials (Fisher, Pittsburgh, Pa.). The vials are placed in a Cobra-II gamma counter (Packard, Meriden, Conn.), with the activity per cell number determined. Inhibition studies determine the dominant transport mechanism (L, A or ASC) for each line [Martarello et al. (2002) supra; McConathy et al. (2003) supra]. For these studies, cells are exposed to the compounds for 30 minutes in amino acid free media containing one of three inhibitors (2-amino-norbornyl-2-carboxylic acid (BCH), 10 mM; α-(methylamino)-isobutyric acid (MeAlB), 10 mM; and an alanine-serine-cysteine mixture 1:1:1 (acs), 10 mM). Saline washes are performed as described above, and the filtered cells' radioactivity determined on the gamma counter. Comparisons with the 30 minute control uptake indicate the major transporters used. Results of these studies are found in FIGS. 1-18.
Approximately 10^6 cells were exposed to the [^18F]amino acid candidate (5 μCi) in 3 ml of amino acid-free media±transporter inhibitors (10 mM) for 30 minutes under incubation conditions by the method previously described (McConathy, J.; Martarello, L.; Malveaux, E.; Camp, V.; Bowers, G.; Olson, J.; Goodman, M. (2002) Radiolabeled amino acids for tumor imaging with PET: radiosynthesis and biological evaluation of [^18F]2-amino-3-fluoro-2-methylpropanoic acid and [^18F]3-fluoro-2-methyl-2-(methylamino)-propanoic acid. J. Med. Chem. 45, 2240-2249). The inhibition studies determined the dominant transport mechanism (L, A) for each candidate PET amino acid for each tumor model. 2-Methylaminoisobutyric acid (MeAlB) and 2-aminobicyclo-[2.2.1]-heptane-2-carboxylic acid (BCH) serve as inhibitors for the “A”, “L” transport systems, respectively.

[4] = test system: 9L Rat gliosarcoma cells; assay: in vitro amino acid uptake in 9L cells; type: cell-based
From the text: (§4) Compounds have been evaluated in vitro for tumor binding specificity (i.e. uptake cells) using a variety of tumor cell lines available in the art, along with reference compounds such as Me-AlB and BCH. Detailed description of these assays can be found in Martarello et al. (2002) Journal of Medicinal Chemistry, 45:2250-2259 and McConathy et al. (2003) Nuclear Medicine and Biology, 30:477-490. These so called “amino acid uptake studies” are typically carried out with radiolabeled compounds in at least five phenotypically different human tumor cell lines (e.g., A549 lung carcinoma, MB468 breast carcinoma, DU145 prostate carcinoma-androgen independent, LnCap-androgen dependent, SKOV3 ovarian carcinoma, U87 glial blastoma, MIA PaCa-2 pancreas carcinoma, MDA MB231 breast carcinoma). These tumor cell lines can be grown either in vitro or in vivo with severe combined immunodeficiency (SCID) mice as a host. The afore-mentioned tumor cell lines are available at the Winship Cancer Institute of Emory University.
(§5) For the in vitro amino acid uptake studies, all cells can be grown to monolayer confluency in T-175 culture flasks [Corning, Corning, N.Y.] (approx. 1×10^8 cells/flask) in Dulbecco's Modified Eagle's Medium (DMEM) [Sigma, St. Louis, Mo.] in a humidified incubator (37° C., 5% CO2/95% air). […]
(§6) In the in vitro studies the uptake rate of each amino acid compound is measured in each tumor line, as well as the dominant transport mechanisms of each tumor cell line. After trypsinization, cells are resuspended in serum-free media, then counted on a hemocytometer, with viability assessed through Trypan blue staining. […] The vials are placed in a Cobra-II gamma counter (Packard, Meriden, Conn.), with the activity per cell number determined. […] Saline washes are performed as described above, and the filtered cells' radioactivity determined on the gamma counter. […]
(§7) The uptake of all compounds were measured in human and rat cancer cell lines and the dominant transport (“A” and “L”) mechanism of each culture were determined. […]

[5] = test system: MIA PaCa-2 Human Pancreas carcinoma cells; assay: in vitro amino acid uptake in MIA PaCa-2 cells; type: cell-based
Experimental: (§8) Compounds have been evaluated in vitro for tumor binding specificity (i.e. uptake cells) using a variety of tumor cell lines available in the art, along with reference compounds such as Me-AlB and BCH. Detailed description of these assays can be found in Martarello et al. (2002) Journal of Medicinal Chemistry, 45:2250-2259 and McConathy et al. (2003) Nuclear Medicine and Biology, 30:477-490. […]
as §6, §7

[6] = test system: MDA MB468 Human Breast carcinoma cells; assay: in vitro amino acid uptake in MDA MB468 cells; type: cell-based
From the text: as §4, §5, §6, §7

[7] = test system: A549 Human Lung adenocarcinoma cells; assay: in vitro amino acid uptake in A549 cells; type: cell-based
From the text: as §4, §5, §6, §7

[8] = test system: DU145 Human Prostate carcinoma cells; assay: in vitro amino acid uptake in DU145 cells; type: cell-based
From the text: as §4, §5, §6, §7

[9] = test system: SKOV3 Human Ovarian carcinoma cells; assay: in vitro amino acid uptake in SKOV3 cells; type: cell-based
From the text: as §4, §5, §6, §7

[10] = test system: U87 Human Glioma cells; assay: in vitro amino acid uptake in U87 cells; type: cell-based
From the text: as §4, §5, §6, §7

[11] = test system: LnCap Human Prostate carcinoma cells; assay: in vitro amino acid uptake in LnCap cells; type: cell-based
Experimental: as §8, §6, §7

[12] = test system: MDA MB231 Human Breast carcinoma cells; assay: in vitro amino acid uptake in MDA MB231 cells; type: cell-based
Experimental: as §8, §6, §7

[13] = test system: Morris 51236 hepatomas; details: cited from earlier work
[14] = test system: tumor lesions; details: 7 human subjects, PET scanner; cited from earlier work
[15] = test system: tumor lesions in 33 patients; details: single photon rectilinear scanner; cited from earlier work
[16] = carbon-14 labeled, rats transplanted with Morris 51236 hepatomas

## N[C@]1(C(=O)O)CCC[C@@H]1[18F] (mixture of isomers) [Enantiomer 13, (1S,2S) and (1R,2R) anti-1-amino-2-[^18F]fluorocyclopentyl-1-carboxylic acid]
[1]; A549 tumors, SCID mice, time points sampled post injection
  uptake of radioactivity in the tumors compared with muscle: greater than muscle
[2]
  uptake of radioactivity in the tumors compared with muscle: greater than muscle

## N[C@]1(C(=O)O)CCC[C@@H]1[18F] (single isomer, unassigned; enantiomer 2) [Enantiomer 2, anti-2-[^18F]FACPC]
[3]
  selective uptake in tumor cells: selectively taken up in tumor cells
[4]
  % Dose uptake per 0.5 × 10−6 Cells: 7.5 % Dose/0.5 × 10^−6
[5]
  % Dose uptake per 0.5 × 10−6 Cells: 3.8 % Dose/0.5 × 10^−6
[6]
  % Dose uptake per 0.5 × 10−6 Cells: 7.5 % Dose/0.5 × 10^−6
[7]
  % Dose uptake per 0.5 × 10−6 Cells: 9.6 % Dose/0.5 × 10^−6
[1]; 15 min
  tissue distribution, blood: 3.68 percent dose/gram
  tissue distribution, bone: 2.50 percent dose/gram
  tissue distribution, brain: 0.53 percent dose/gram
  tissue distribution, heart: 3.18 percent dose/gram
  tissue distribution, kidney: 10.81 percent dose/gram
  tissue distribution, liver: 2.86 percent dose/gram
  tissue distribution, lung: 4.75 percent dose/gram
  tissue distribution, muscle: 2.07 percent dose/gram
  tissue distribution, pancreas: 40.68 percent dose/gram
  tissue distribution, spleen: 9.37 percent dose/gram
  tissue distribution, tumor: 8.13 percent dose/gram
[1]; 60 min
  tissue distribution, blood: 1.17 percent dose/gram
  tissue distribution, bone: 1.77 percent dose/gram
  tissue distribution, brain: 0.58 percent dose/gram
  tissue distribution, heart: 1.82 percent dose/gram
  tissue distribution, kidney: 3.73 percent dose/gram
  tissue distribution, liver: 1.22 percent dose/gram
  tissue distribution, lung: 1.77 percent dose/gram
  tissue distribution, muscle: 1.78 percent dose/gram
  tissue distribution, pancreas: 16.42 percent dose/gram
  tissue distribution, spleen: 2.95 percent dose/gram
  tissue distribution, tumor: 5.78 percent dose/gram
[8]
  % Dose uptake per 0.5 × 10−6 Cells: 4.7 % Dose/0.5 × 10^−6
[9]
  % Dose uptake per 0.5 × 10−6 Cells: 5.5 % Dose/0.5 × 10^−6
[10]
  % Dose uptake per 0.5 × 10−6 Cells: 17 % Dose/0.5 × 10^−6
[11]
  % Dose uptake per 0.5 × 10−6 Cells: 3.8 % Dose/0.5 × 10^−6
[12]
  % Dose uptake per 0.5 × 10−6 Cells: 6.4 % Dose/0.5 × 10^−6

## NC1(C(=O)O)CCC1 [ACBC]
[13]; rat, in vivo
  tumor uptake: 4.6 % dose/g

## NC1(C(=O)O)CCCCC1 [ACHC, 1-amino-cyclohexane-1-carboxylic acid]
[13]; [16]
  tumor uptake: 0.9 % dose/g

## NC1(C(=O)O)CCCC1 [ACPC, 1-amino-cyclopentane-1-carboxylic acid]
[13]; [16]
  tumor uptake: 3.6 % dose/g

## NC1(C(=O)O)CC1 [ACPRC, 1-amino-cyclopropane-1-carboxylic acid]
[13]; [16]
  tumor uptake: 1.2 % dose/g

## NC1([11C](=O)O)CCC1 [[^11C]ACBC, 1-aminocyclobutane-1-[^11C]carboxylic acid]
[14]
  uptake in lesions: increased uptake was observed in lesions in all subjects

## NC1([11C](=O)O)CCCC1 [[^11C]ACPC, 1-Aminocyclopentane-1 [^11C]Carboxylic Acid]
[14]
  uptake in lesions: increased uptake was observed in lesions in all subjects
[15]
  lesions with increased uptake: 70%
